ChEMBL document CHEMBL5053551, “Structure-Based Design of Dual Partial Peroxisome Proliferator-Activated Receptor γ Agonists/Soluble Epoxide Hydrolase Inhibitors” (J Med Chem, 2021)
In brackets after ≈: the same amount, converted by molar mass. Activity calls are given as the source filed them. No cut-off for these calls is given here.

Tests used:
[1] = target: T1, Peroxisome proliferator-activated receptor alpha (Homo sapiens) (UniProt Q07869); assay: Partial agonist activity at GAL4-tagged human PPARalpha LBD expressed in HEK293T cells at 3 uM incubated for 12 to 14 hrs by dual-Glo luciferase assay; assay type: cell-based; conditions: time 12-14 hrs
T1 sequence (whole entry): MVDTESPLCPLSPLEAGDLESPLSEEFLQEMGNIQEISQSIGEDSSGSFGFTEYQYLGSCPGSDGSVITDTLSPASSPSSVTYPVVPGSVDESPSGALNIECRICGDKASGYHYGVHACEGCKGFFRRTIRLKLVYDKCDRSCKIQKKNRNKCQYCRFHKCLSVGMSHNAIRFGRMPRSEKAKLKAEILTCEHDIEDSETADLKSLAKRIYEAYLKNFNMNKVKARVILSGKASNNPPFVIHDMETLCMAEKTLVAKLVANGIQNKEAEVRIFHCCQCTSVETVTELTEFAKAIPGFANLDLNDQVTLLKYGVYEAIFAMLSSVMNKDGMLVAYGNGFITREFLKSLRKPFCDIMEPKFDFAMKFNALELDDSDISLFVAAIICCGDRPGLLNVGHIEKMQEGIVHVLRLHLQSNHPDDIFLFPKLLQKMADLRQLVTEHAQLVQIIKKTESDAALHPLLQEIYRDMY

[2] = target: T2, Peroxisome proliferator-activated receptor delta (Homo sapiens) (UniProt Q03181); assay: Partial agonist activity at GAL4-tagged human PPARdelta LBD expressed in HEK293T cells at 3 uM incubated for 12 to 14 hrs by dual-Glo luciferase assay; assay type: cell-based; conditions: time 12-14 hrs
T2 sequence (whole entry): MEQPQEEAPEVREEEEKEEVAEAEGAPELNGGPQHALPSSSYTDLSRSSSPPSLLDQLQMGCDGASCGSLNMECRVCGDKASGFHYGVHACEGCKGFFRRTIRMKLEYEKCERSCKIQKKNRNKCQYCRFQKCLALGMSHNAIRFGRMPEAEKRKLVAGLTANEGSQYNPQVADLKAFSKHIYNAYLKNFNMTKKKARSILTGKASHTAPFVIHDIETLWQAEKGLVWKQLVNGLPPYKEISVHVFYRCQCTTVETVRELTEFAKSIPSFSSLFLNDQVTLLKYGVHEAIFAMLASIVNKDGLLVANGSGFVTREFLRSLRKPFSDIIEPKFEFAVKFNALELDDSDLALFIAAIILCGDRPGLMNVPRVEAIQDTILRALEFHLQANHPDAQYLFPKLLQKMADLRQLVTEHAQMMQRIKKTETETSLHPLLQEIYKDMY

3T3-L1 = assay: Induction of cell differentiation in mouse 3T3-L1 cells assessed as increase in differentiation cocktail-induced lipid accumulation at 0.3 to 3 uM incubated for 2 days by Oil-Red O staining based assay; assay type: functional; conditions: dose 0.3-3 µM, time 2.0 day
[3] = Solubility of compound in DPBS buffer; assay type: physicochemical
[4] = target: T3, Bifunctional epoxide hydrolase 2 (Mus musculus, UniProt P34914); assay: Inhibition of N-terminal His-tagged mouse sEH (2 to 554 residues) expressed in Escherichia coli Rosetta2 (DE3) assessed as reduction in 6-methoxy-2-naphthaldehyde formation using PHOME as substrate preincubated for 30 to 45 mins followed by substrate addition and measured after 30 to 45 mins by fluorescence assay
T3 sequence (P34914 whole entry): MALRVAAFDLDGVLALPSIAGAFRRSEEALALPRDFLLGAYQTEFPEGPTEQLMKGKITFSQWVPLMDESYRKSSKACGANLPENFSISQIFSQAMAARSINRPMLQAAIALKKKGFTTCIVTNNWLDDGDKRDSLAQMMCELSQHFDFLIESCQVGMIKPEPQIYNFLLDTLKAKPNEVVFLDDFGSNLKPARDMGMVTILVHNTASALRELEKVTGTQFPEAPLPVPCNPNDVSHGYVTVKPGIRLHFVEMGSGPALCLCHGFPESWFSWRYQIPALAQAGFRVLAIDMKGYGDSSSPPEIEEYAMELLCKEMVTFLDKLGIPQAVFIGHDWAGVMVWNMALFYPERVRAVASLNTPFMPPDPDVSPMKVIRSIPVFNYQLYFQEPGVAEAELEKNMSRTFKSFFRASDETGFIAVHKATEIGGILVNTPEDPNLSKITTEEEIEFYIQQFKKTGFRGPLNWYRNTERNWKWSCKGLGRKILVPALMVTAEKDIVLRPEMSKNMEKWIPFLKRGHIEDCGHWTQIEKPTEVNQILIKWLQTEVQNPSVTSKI

HepG2 [5] = assay: Cytotoxicity against human HepG2 cells assessed as reduction in ATP level at above 25 to 50 uM after 72 hrs by CellTiter-glo luminescence assay; assay type: cell-based; conditions: hepg2, 72 h, dose 25-50 µM
HepG2 [6] = assay: Cytotoxicity against human HepG2 cells assessed as reduction in ATP level upto 10 uM after 72 hrs by CellTiter-glo luminescence assay; assay type: cell-based; conditions: hepg2, 72 h
[7] = target: T4, Peroxisome proliferator-activated receptor gamma (Homo sapiens) (UniProt P37231); assay: Partial agonist activity at recombinant sGSF-PPARgamma (unknown origin) assessed as CBP-1 recruitment by HT-FRET assay relative to control
T4 sequence (whole entry): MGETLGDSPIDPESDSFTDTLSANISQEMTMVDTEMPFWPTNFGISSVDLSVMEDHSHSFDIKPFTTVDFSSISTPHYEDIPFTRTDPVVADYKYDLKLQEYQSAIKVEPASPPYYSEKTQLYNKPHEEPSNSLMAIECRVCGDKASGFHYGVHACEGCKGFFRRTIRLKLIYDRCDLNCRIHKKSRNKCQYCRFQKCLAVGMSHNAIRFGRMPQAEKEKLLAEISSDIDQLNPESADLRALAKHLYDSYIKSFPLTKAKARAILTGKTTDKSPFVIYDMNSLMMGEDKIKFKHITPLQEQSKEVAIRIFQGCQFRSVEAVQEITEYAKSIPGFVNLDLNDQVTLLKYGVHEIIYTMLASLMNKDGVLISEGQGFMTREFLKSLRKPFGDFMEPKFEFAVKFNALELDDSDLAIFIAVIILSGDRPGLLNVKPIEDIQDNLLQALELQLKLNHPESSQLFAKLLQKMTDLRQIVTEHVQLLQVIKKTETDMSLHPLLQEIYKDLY

[8] = Stability of compound in human liver microsomes assessed as half life at 10 uM preincubated for 5 mins in presence of NADPH regenerating system followed by microsomal addition and measured upto 60 mins by HPLC analysis; assay type: ADME, Microsome; conditions: time 65 min
[9] = Stability of compound in Sprague-Dawley rat liver microsomes assessed as half life at 10 uM preincubated for 5 mins in presence of NADPH regenerating system followed by microsomal addition and measured upto 60 mins by HPLC analysis; assay type: ADME, Microsome; conditions: time 65 min

O=C(NCc1ccc(NS(=O)(=O)C2CC2)cc1C(F)(F)F)c1ccc2c(ccn2Cc2cccc(F)c2)c1
Activity [1]: inactive
Activity [2]: inactive
Activity (3T3-L1): Active
solubility [3]: 3 µM (≈ 1.64 µg/mL)
IC50 [4]: 202 nM
Activity (HepG2 [5]): Toxic
Activity (HepG2 [6]): Non-Toxic
Emax [7]: 28%
half-life at 10 µM [8]: 1.38 h
half-life at 10 µM [9]: 0.95 h

CS(=O)(=O)Nc1ccc(CNC(=O)c2ccc3c(ccn3Cc3cccc(F)c3)c2)c(C(F)(F)F)c1
Activity [1]: inactive
Activity [2]: inactive
Activity (3T3-L1): Active
solubility [3]: 3 µM (≈ 1.56 µg/mL)
IC50 [4]: 46 nM
Activity (HepG2 [5]): Toxic
Activity (HepG2 [6]): Non-Toxic
Emax [7]: 19%
half-life at 10 µM [8]: 1.68 h
half-life at 10 µM [9]: 0.867 h
